From patent US8852569B2, “Prevention and treatment of itch with cysteine protease inhibition” (The General Hospital Corporation, priority 2008, dated 2014)

Columns and labels:
human cathepsin S = biological target: T1, human cathepsin S (Homo sapiens, UniProt P25774); assay: Chromogenic substrate assay, inhibition of cathepsin S by E64; format: biochemical; settings: FIG. 1; protease 0.84 μM, E64 2 μM
T1 construct: made in house; host or cells: E. coli
Procedure: (§1) The concentrations of all the three proteases are at 0.84 μM and that of E64, a non-selective irreversible inhibitor of cysteine proteases, is at 2 μM […].
(§2) Papain served as a positive control cysteine protease. The cathepsin S and K were further evaluated for their capacity to activate PAR receptors as noted below.

human cathepsin K = biological target: T2, human cathepsin K (Homo sapiens, UniProt P43235); assay: Chromogenic substrate assay, inhibition of cathepsin K by E64; format: biochemical; settings: FIG. 1; protease 0.84 μM, E64 2 μM
T2 construct: made in house; host or cells: E. coli
T2 sequence (P43235 115-329): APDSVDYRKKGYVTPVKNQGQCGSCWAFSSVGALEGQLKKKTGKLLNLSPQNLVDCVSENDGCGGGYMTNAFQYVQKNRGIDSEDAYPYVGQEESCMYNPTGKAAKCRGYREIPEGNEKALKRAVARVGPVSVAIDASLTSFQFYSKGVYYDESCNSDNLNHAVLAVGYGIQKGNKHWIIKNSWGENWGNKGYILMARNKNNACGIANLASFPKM
Procedure: as §1, §2

PAR2 = assay: PAR activation by cytoplasmic calcium release in transfected HeLa cells (Fura-2 ratiometric imaging), PAR2; format: cell-based, human; settings: FIG. 3C; cathepsin S 2 μM, E64 10 μM, fura-2 single cell imaging
Procedure: (§3) The responses to PAR 2 and 4 were blocked by the protease inhibitor E64 (10 μM) as a control). Other controls included vector alone and vector encoding the PAR1 receptor. Cathepsin S was added as indicated. The averages from at least three separate experiments were then combined +/−SD.
(§4) Salmon sperm (SS) DNA is used as control. The averages from at least three separate experiments were then combined +/−SD.
(§5) PAR activation observed by cytoplasmic calcium release—The four human PAR cDNAs were obtained from commercial sources and cloned into the pcDNA3.1(−) vector (INVITROGEN™ Inc.). HeLa cells were transfected with 10 μg of vector cDNA using Lipofectamine 2000 (INVITROGEN™ Inc.) and cultured for two days in 96-well glass bottom plates at 30,000 cells/well. Cells were loaded with Fura-2 as follows. The medium was aspirated and replaced with 100 μl of complete DMEM containing 2 μM Fura-2 (INVITROGEN™ Inc.) and kept at room temperature in the dark for 1 hr. The medium was again aspirated and each well received 90 μl of HEPES buffered saline (20 mM HEPES, 115 mM NaCl, 5.4 mM KCl, 2 mM CaCl2, 0.8 mM MgCl2, 13.8 mM glucose, pH 7.4). Plates were observed using a Zeiss Axiovert 200M microscope equipped with a filter wheel for monitoring excitation at 340 and 380 nm. Axiovision software, version 4.6 was used to analyze ratiometric calcium imaging of the cells. […]

PAR4 = assay: PAR activation by cytoplasmic calcium release in transfected HeLa cells (Fura-2 ratiometric imaging), PAR4; format: cell-based, human; settings: FIG. 3C; cathepsin S 2 μM, E64 10 μM, fura-2 single cell imaging
Procedure: as §3, §4, §5

T1 sequence (P25774 115-331): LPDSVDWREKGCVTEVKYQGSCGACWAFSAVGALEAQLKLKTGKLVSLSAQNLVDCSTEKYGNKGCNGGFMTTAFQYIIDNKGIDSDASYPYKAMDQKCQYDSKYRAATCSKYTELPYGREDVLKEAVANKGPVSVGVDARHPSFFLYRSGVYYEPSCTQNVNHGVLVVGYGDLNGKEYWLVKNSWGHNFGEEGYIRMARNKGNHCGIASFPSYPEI

- protease activity of cathepsin S (cleavage of Z-Phe-Arg-pNA) in presence of E64 (human cathepsin S): eliminated
- protease activity of cathepsin K (cleavage of Z-Phe-Arg-pNA) in presence of E64 (human cathepsin K): eliminated
SMILES: CC(C)C[C@H](NC(=O)[C@H]1O[C@@H]1C(=O)O)C(=O)NCCCCN=C(N)N (relative stereo) [E64, trans-epoxysuccinyl-L-leucylamide-(4-guanidino) butane, reference compound]
- cathepsin S induced PAR2 response in presence of E64 (PAR2): blocked
- cathepsin S induced PAR4 response in presence of E64 (PAR4): blocked
